Legend:
[1] = test system: U-87 MG human glioblastoma tumor cells; assay: U-87 MG glioblastoma subcutaneous xenograft tumor growth in nude mice (Example 2); assay type: in vivo
Method: U-87 MG human glioblastoma tumor cells (from ATCC) were expanded in culture, harvested and injected subcutaneously into 5-8 week old female nude mice (CD1 NU/NU, Charles River Laboratories) (n=10/group). Treatment began on day 14 (average tumor volume 200 mm^3) with a VEGFR inhibitor, AMG 706, by oral gavage (75 mg/kg/dose/once per day) or an HGF/SF:c-Met inhibitor, AMG 102 by intraperitoneal injection, (3 or 10 μg/dose/twice per week) or a combination of AMG 706 and AMG 102 at the same doses and schedules. Vehicle alone (acid water pH 2.0) and IgG2 isotype control antibody (30 μg/dose/twice per week) served as negative controls for the VEFGFR inhibitor and the HGF/SF:c-Met inhibitor, respectively. Progression of tumor growth was followed by three dimensional caliper measurements and recorded as a function of time. Initial statistical analysis was done by repeated measures analysis of variance (ANOVA), followed by Scheffé post hoc testing for multiple comparisons. […] The combination of AMG 706 and AMG 102 provided no additional benefit compared to AMG 102 monotherapy. Body weights were not negatively impacted by any treatment. Arrow and Rx denote start of dosing.

[2] = test system: 786-0 human renal cell adenocarcinoma cells; assay: 786-0-S4 renal cell adenocarcinoma subcutaneous xenograft tumor growth in athymic nude mice (Example 7); assay type: in vivo; details: AMG 706 75 mpk/dose PO, Amgen Compound 3 100 mpk/dose PO, or combination, once daily; p≦0.0322 (AMG 706, combination), p=0.0519 (Amgen Compound 3)
From the text: 786-0-S4 (786-0 human renal cell adenocarcinoma cells from ATCC that were passaged in vivo) were expanded in culture, harvested and injected subcutaneously into 9 week old female athymic nude mice (Harlan Sprague Dawley) (n=10/group). Administration of the VEGFR inhibitor, AMG 706 (75 mpk/dose, PO), or the c-Met inhibitor, Amgen Compound 3 (100 mpk/dose, PO), or a combination of AMG 706 (75 mpk/dose, PO) and Amgen Compound 3 (100 mpk/dose, PO) began on day 20 post tumor cell implantation. AMG 706 was subsequently administered once daily by oral gavage (75 mpk/dose) and Amgen Compound 3 was administered once daily by oral gavage (100 mpk/dose) for the duration of the experiment. Progression of tumor growth was assessed by three dimensional caliper measurements and recorded as a function of time. Statistical analysis was performed by repeated measures analysis of variance (RMANOVA) followed by Scheffe post hoc testing for multiple comparisons. Vehicles (Acid water (pH 2.2) and 2% HPMC 1% Tween 80) served as negative controls for AMG 706 and Amgen Compound 3, respectively. […] Body weights were not negatively impacted by any treatment. Arrow and Rx denote the start of dosing.

Compound | tumor growth compared to the isotype control group ([1]; AMG 102 3 or 10 μg per dose twice per week i.p., p<0.0005) | tumor growth compared with vehicle control group ([1]; AMG 706 75 mg/kg once per day oral gavage) | tumor growth compared to the vehicle [2]
AMG 102: anti-HGF/SF antibody, identified in US 2005/0118643 and WO 2005/017107 as antibody 2.12.1 | significantly inhibited tumor growth |  | 
CC1(C)CNc2cc(NC(=O)c3cccnc3NCc3ccncc3)ccc21 [AMG 706, N-(2,3-dihydro-3,3-dimethyl-1H-indol-6-yl)-2-[(4-pyridinylmethyl)amino]-3-pyridinecarboxamide] |  | no significant effect on tumor growth | significantly inhibited tumor growth
Cc1c(C(=O)Nc2ccc(Oc3ccnc(NC(=O)N4CCOCC4)c3)c(F)c2)c(=O)n(-c2ccccc2)n1C [Amgen Compound 3, N-(4-(4-(1,5-dimethyl-3-oxo-2-phenyl-2,3-dihydro-1H-pyrazole-4-carboxamido)-2-fluorophenoxy)pyridin-2-yl)morpholine-4-carboxamide] |  |  | did not significantly inhibit tumor growth

From patent US20110104161A1, “COMBINATIONS VEGF(R) INHIBITORS AND HEPATOCYTE GROWTH FACTOR (C-MET) INHIBITORS FOR THE TREATMENT OF CANCER” (priority 2008, published 2011)
